Laboratory results taken from patent publication US20100279941A1, “CD36 MODULATION AND USES THEREOF” (priority 2009, published 2010).

Experiments:
[1] = test system: CD36^+/+ and CD36^−/− mice; test: Area at risk and infarct size after 30-min LCAL and 48 hours reperfusion (Evans blue/TTC); assay type: in vivo
From the text: Animals. CD36^−/− mice were generated by targeted homologous recombination and backcrossed six times to C57BI/6. Wild-type control littermates (CD36^+/+) were bred from the same cross and were therefore of identical genetic background [Febbraio et al., 2000]. Male mice, aged 23 (±1) weeks, were used for experiments. They were fed standard chow (#5075, Charles Rivers, Saint-Constant, Québec, Canada) and water ad libitum, and housed singly during treatment periods (2 or 10 weeks). Daily pharmacological treatments with 300 μg/kg of EP 80317 or CP1A(IV) or vehicle (0.9% NaCl) were done by subcutaneous (s.c.) injections.
C57BU6 mice were bred in house. Male mice, aged 23 (±1) weeks, were used for experiments. They were fed standard chow (#5075, Charles Rivers, Saint-Constant, Québec, Canada) and water ad libitum, and housed singly during treatment periods (2 weeks). Daily pharmacological treatments with 300 μg/kg (289 nmol/kg) of EP 80317 or 289 nmol/kg of CP-3(IV), 289 nmol/kg of CP-AP-4 or vehicle (0.9% NaCl) were done by subcutaneous (s.c.) injections.
(§1) Experimental model of IHD: Transient left coronary artery ligation in vivo. Mice were subjected to a transient LCAL surgery as described before, with minor modifications [Tarnayski et al., 2004]. Mice were injected i.p. with buprenorphine (0.05 mg/kg) and placed in an induction chamber with inhalation anesthesia comprised of 3% isoflurane mixed with 100% oxygen. Mice were intubated with a blunt ended 20-gauge catheter into the trachea via the mouth and mechanically ventilated at a tidal volume of 7 ml/kg at 130 respirations/min with a MiniVent™ mouse ventilator (model 845, Harvard Apparatus, Saint-Laurent, QC, Canada). Anesthesia was maintained with 1.5-2% isoflurane and the animals were kept warm using electrical heating pads during the surgical procedure. The chest was opened by a horizontal incision through the skin and muscle layers at the third intercostal space exposing the left side of the heart. […] Visual blanching distal to the coronary occlusion confirmed myocardial ischaemia. Lidocaine (6 mg/kg) was administered i.p. just following occlusion and prior to reperfusion. After 30 minutes, the PE10 tubing was removed allowing reperfusion. The lungs were reinflated and the chest wound closed layer by layer before extubation. At 6 hours following reperfusion, mice were anesthetized (isoflurane), a blood sample withdrawn, and the heart arrested in diastole by an intravenous injection of 1 M KCl (0.5 mL). Hearts were immediately frozen at −80° C. unless otherwise stated.
Evaluation of area at risk and infarct size. Two days after reperfusion, the left anterior descending (LAD) coronary artery was re-occluded at the original site and the abdominal aorta was injected retrogradly with 5% Evans blue dye to delineate the AAR by the absence of dark blue staining. The left ventricle, including the interventricular septum, was dissected and cut into transverse 1-mm slices from the apex to the base, using an acrylic matrix (Alto Inc., Hatfield, Pa., USA). The slices were incubated in 1% triphenyltetrazolium chloride solution at 37° C. for 15 min and placed in 10% neutral buffered formalin for 12 hours. Each slice was weighed and photographed on both sides with a digital camera (Nikon, Coolpix™ 4500, Mississauga, Ontario, Canada). The total LV area, AAR and IA were determined for each side of a slice by planimetric analysis using Adobe CS3 Photoshop™ software (Ottawa, ON, Canada), and averaged. The infarct weight was determined as follows: [(A1×WT1)+(A2×WT2)+(A3×WT3)+(A4×WT4) . . . ] where A and WT are the infarct area and weight of the section, respectively. The AAR weight was calculated in a similar manner, but by subtracting the blue (viable) stained zone from the weight. The results are expressed in terms of % IA/AAR, IA/LV and AAR/LV.

[2] = test system: CD36^+/+ and CD36^−/− mice; test: Myocardial oxidative metabolism by μPET with [11C]-acetate; assay type: in vivo; settings: in words
Experimental: as §1, with “After 30 minutes, the PE10 tubing was removed allowing reperfusion. The lungs were reinflated and the chest wound closed layer by layer before extubation. At 6 hours following reperfusion, mice were anesthetized (isoflurane), a blood sample withdrawn, and the heart arrested in diastole by an intravenous injection of 1 M KCl (0.5 mL). Hearts were immediately frozen at −80° C. unless otherwise stated.” left out
Imaging Data Analysis. For [^11C]-acetate images, dynamic series of 25 frames each were sorted out whereas 27 frames were used for ^18FDG and ^18FTHA imaging, and were reconstructed and analyzed using multicompartmental analysis [Menard et al., 2009] or the Patlak method for FTHA [Patlak and Blasberg, 1985]. […]

[3] = 2-week treatment 300 μg/kg/d, CD36^+/+ mice, 48 hours reperfusion, p<0.05 vs vehicle

HAIC-2MeDTrp-DLys-Trp-DPhe-Lys-NH2 [EP 80317]
reduction of IA/AAR ratio [1, 3]: 31% | reduction of IA/LV ratio [1, 3]: 34% | area-at-risk ([1]; CD36^+/+ (C57BL/6) mice, 289 nmol/kg 2 weeks, 48 hours reperfusion, mean (±SE)): 51 (±5) % | reduction of IA/LV ratios ([1]; CD36^+/+ (C57BL/6) mice, 289 nmol/kg 2 weeks, 48 hours reperfusion, p<0.001 vs 0.9% NaCl): 48% | effect on infarct size ([1]; CD36^−/− mice, 48 hours reperfusion, in words): did not modulate | effect on AAR/LV ([1]; pretreatment 14 days, both CD36^+/+ and CD36^−/− mice, in words): did not modulate | myocardial oxidative metabolism (k2) ([2]; CD36^+/+ mice pre-treated): reduced | myocardial oxidative metabolism (k2) ([2]; CD36^−/− mice): unaffected
